Entries after “also recorded” stand apart in the source; their conditions may differ.
What was measured:
[1] = Hygroscopicity: water content by TGA after storage at defined relative humidity; assay type: physicochemical
Procedure: (§1) Samples of disodium tiludronate hemihydrate were stressed at humidity levels of 12-95% RH using different saturated salt solutions to obtain a range of relative humidity. The salt solutions used and the corresponding relative humidity are tabulated below:
(§2) The samples were held for 2 weeks at each humidity at 20° C. and analyzed by TGA for moisture content. The samples were also analyzed by FTIR to determine if spectroscopic changes were observed. Samples which increased in moisture content after 2 weeks were then moved to lower relative humidity to determine if the water uptake was reversible.
A sample of the monohydrate form was also stressed with respect to humidity. Samples were stressed at 58-95% RH at 20° C. for 2 weeks.
B) Thermal Gravimetric Analysis (TGA)
Thermal Gravimetric Analysis was performed on the Perkin Elmer TGA-7 system. Samples were weighed into a platinum pan and scanned at a rate of 5° C./min. under nitrogen purge gas.

[2] = Solubility in acetate buffer pH 4.8, 20° C.; assay type: physicochemical; settings: for solubility (concentration in acetate buffer): 30 min
Procedure: The solubility of unstressed hemihydrate, the monohydrate form and a sample which was equilibrated at 95% RH, i.e. tetrahydrate were compared in acetate buffer. A pH value of 4.8 was chosen. Approximately 250 mg of drug was added to 1 ml of solvent and agitated with a laboratory rotator at 20° C. The sample was filtered (0.45 micron) and diluted (200 ul to 25 ml). This solution was then diluted by a factor of 5 prior to UV analysis. Samples were analyzed at time points of 0.5, 3.0, and 24 hours with the Hewlett Packard 8451A diode array spectrophotometer. Absorbance was measured at 264 nm versus a standard prepared in acetate buffer. The solubility was determined (based on anhydrous drug) for two different samples (of each form) at each time point.

[3] = Crystal form change under humidity stress (FTIR, XRPD, TGA); assay type: physicochemical; settings: for changes by TGA / FTIR at low relative humidity: 12-58% RH, 2 weeks; for crystal form change (FTIR, TGA): 75-85% RH (75% and 84% RH samples); for crystal form change (FTIR, XRPD, TGA): 95% RH
Procedure: as §1, §2
C) Fourier Transform Infrared Spectroscopy (FTIR)
FTIR spectra were obtained on the Nicolet 730 system equipped with an MCT detector. Samples were run as KBr dispersions at approximately 1% concentration.
D) X-Ray Powder Diffraction (XRPD)
XRPD data was provided by Kodak Analytical Technology Division (Rochester, N.Y.) using a Rigaku RU 300 system at […].

[4] = Intrinsic dissolution rate in acetate buffer pH 4.8, 20° C.; assay type: physicochemical; settings: for intrinsic dissolution rate (average slope): acetate buffer pH 4.8, 20° C., 100 RPM, triplicate
Procedure: F) Intrinsic Dissolution Rate
The intrinsic dissolution rates of hemihydrate, the monohydrate form and tetrahydrate form were determined in acetate buffer (pH=4.8) at 20° C. A disk (0.5 cm^2) was compressed under the following conditions: 225-250 mg drug, 4000 lbs pressure, and 30 seconds compaction time. The disk was dissolved in a Vander Kamp VK 6000 dissolution bath in 250 ml solvent at 100 RPM. Samples were withdrawn at 2, 4, 6, 8, 10 and 15 minutes and diluted by a factor of 2 for UV analysis. Samples were analyzed at 264 nm with the Hewlett Packard 8451A diode array spectrophotometer. Intrinsic dissolution plots were generated by plotting concentration/area vs. time and determining the slope by linear regression. Each dissolution experiment was run in triplicate.

[5] = Hysteresis / reversibility of water uptake on moving to lower relative humidity; assay type: physicochemical; settings: for stability / reversion at low relative humidity: moved to humidity as low as 31% RH after 75-95% RH
Procedure: as §2
Hysteresis data (samples stored at high humidity were moved from high to low humidity) for samples stressed at 75-95% RH is shown in FIG. 1b. […] If the moisture was hygroscopic in nature one would expect the moisture level to decrease as the humidity level is decreased.

[6] = ambient temperature and humidity
[7] = listed as disodium tiludronate hemihydrate, hemihydrate

SMILES: O=P(O)(O)C(Sc1ccc(Cl)cc1)P(=O)(O)O [Tiludronate, disodium 4-chlorophenylthiomethylenebisphosphonate]
- moisture content as relative humidity is increased ([1]; increasing RH): does not increase in moisture content as relative humidity is increased until a relative humidity is reached where crystalline changes occur

SMILES: O=P(O)(O)C(Sc1ccc(Cl)cc1)P(=O)(O)O [hemihydrate, disodium 4-chlorophenylthiomethylenebisphosphonate hemihydrate]
- solubility at 0.5 h ([2]; acetate buffer, pH 4.8, aqueous buffer, pH 4.8, 20° C., 0.5 hours, based on anhydrous drug, read-out: solubility (concentration in acetate buffer)): 147 mg/mL
- solubility at 24 hours relative to tetrahydrate ([2]; pH 4.8, 20° C., 24 hours): equivalent to the tetrahydrate
- initial solubility relative to tetrahydrate ([2]; pH 4.8, 20° C., initial): higher than the tetrahydrate form
- FTIR analysis of residual solid in solubility samples ([2]; pH 4.8, residual solid): conversion to the tetrahydrate
- changes by TGA / FTIR at low relative humidity ([3]; hemihydrate): no changes in spectra
- changes by TGA / FTIR at low relative humidity [3, 7]: no changes by TGA and FTIR
- crystal form change (FTIR, TGA) ([3]; hemihydrate): partial change to monohydrate and tetrahydrate
- crystal form change (FTIR, TGA) [3, 7]: partial transformation to the tetrahydrate form; also recorded: mixture of forms
- crystal form change (FTIR, XRPD, TGA) ([3]; hemihydrate): conversion of the hemihydrate to the tetrahydrate form; also recorded: significant change in the FTIR spectra and X-ray pattern indicative of crystalline rearrangement
- crystal form change (FTIR, XRPD, TGA) [3, 7]: crystalline changes accompany the increase in moisture content; also recorded: changed to a tetrahydrate form
- intrinsic dissolution rate (average slope) ([4]; hemihydrate): 0.0332 mg/(ml*cm^2 *min)
- FTIR analysis of the disk at the end of the dissolution experiment ([4]; hemihydrate): conversion to the tetrahydrate form was occurring
- stability / reversion at low relative humidity [5, 7]: did not revert at 31% RH
- moisture level on moving stepwise to lower relative humidity (hysteresis) ([5]; samples stressed at 75-95% RH): not reversible
- water content (TGA analysis) ([1]; 12-58% RH, 20° C., 2 weeks): approximately 5%
- water content ([1]; 75% RH, 20° C., 2 weeks): 8.4%
- water content ([1]; 84% RH, 20° C., 2 weeks): 13.7%
- moisture level / total weight loss (TGA) ([1]; 95% RH, 20° C., 2 weeks): 16.4%

SMILES: O=P(O)(O)C(Sc1ccc(Cl)cc1)P(=O)(O)O [monohydrate, disodium 4-chlorophenylthiomethylene-bisphosphonate monohydrate]
- solubility (concentration in acetate buffer) ([2]; pH 4.8, 20° C., 0.5 hours, based on anhydrous drug, monohydrate): 175 mg/mL
- intrinsic dissolution rate (average slope) ([4]; monohydrate): 0.0351 mg/(ml*cm^2 *min)
- FTIR analysis of the disk at the end of the dissolution experiment ([4]; monohydrate): did not show transformation to the tetrahydrate

SMILES: O=P(O)(O)C(Sc1ccc(Cl)cc1)P(=O)(O)O [tetrahydrate, disodium 4-chlorophenylthiomethylenebisphosphonate]
- solubility (concentration in acetate buffer) ([2]; pH 4.8, 20° C., 0.5 hours, based on anhydrous drug): 140 mg/mL
- crystal form change (FTIR, XRPD, TGA) [3]: little evidence of the monohydrate form
- conversion to monohydrate or hemihydrate [6]: not convened to either the monohydrate or hemihydrate form thereof at ambient temperature and humidity
- intrinsic dissolution rate (average slope) [4]: 0.0359 mg/(ml*cm^2 *min)
- stability / reversion at low relative humidity [5]: stability of the tetrahydrate form at humidity levels as low as 31% RH
